Test results: ChEMBL document CHEMBL1201862, “PubChem BioAssay data set” (2004)
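Briefly, cells in 96-well plates were exposed to five compound concentrations for 48 h, and endpoints were estimated by linear interpolation. Abbreviation: GI50, concentration required for 50% inhibition of growth.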 Calls of active or inactive are those of the source. Cut-off read from the data, not from the text of the source: active = GI50 up to about 1.1 µM and inactive = higher.

Experiments:
Assay in all cases: inhibition of tumour cell growth, NCI panel, 48 h
[1] = system: EKVX
[2] = system: HCC 2998
[3] = system: HOP-92
[4] = system: Hs-578T
[5] = system: K562
[6] = system: MDA-MB-231
[7] = system: Malme-3M
[8] = system: NCI-H226
[9] = system: NCI-H23
[10] = system: NCI-H460
[11] = system: OVCAR-4
[12] = system: OVCAR-8
[13] = system: SF-268
[14] = system: SF-295
[15] = system: SK-MEL-28
[16] = system: SK-MEL-5
[17] = system: SK-OV-3
[18] = system: SNB-75
[19] = system: T47D
[20] = system: UACC-257

SMILES | GI50 [1] | GI50 [2] | GI50 [3] | GI50 [4] | GI50 [5] | GI50 [6] | GI50 [7] | GI50 [8] | GI50 [9] | GI50 [10] | GI50 [11] | GI50 [12] | GI50 [13] | GI50 [14] | GI50 [15] | GI50 [16] | GI50 [17] | GI50 [18] | GI50 [19] | GI50 [20]
CCCCCCCCOC(=O)c1cc([N+](=O)[O-])c(Sc2[nH]cnc3ncnc2-3)c([N+](=O)[O-])c1 | 8.71 µM (inactive) | 3.66 µM (inactive) | 0.748 µM (active) | 5.33 µM (inactive) | 0.366 µM (active) | 7.19 µM (inactive) | 3.61 µM (inactive) | 2.03 µM (inactive) | 2.45 µM (inactive) | 3.4 µM (inactive) | 3.49 µM (inactive) | 2.18 µM (inactive) | 2.38 µM (inactive) | 3.12 µM (inactive) | 19.1 µM (inactive) | 3.57 µM (inactive) | 0.695 µM (active) | 2.47 µM (inactive) | 0.465 µM (active) | 5.62 µM (inactive)
COc1cccc2c1C(=O)c1c(O)c3c(c(O)c1C2=O)C[C@@](O)(C(=O)CO)C[C@@H]3OC1CC(N(C)C)C(O)C(C)O1 (some centres undefined) | 0.0415 µM (active) | 0.0675 µM (active) | 0.031 µM (active) | < 0.01 µM (active) | 0.0583 µM (active) | 0.0528 µM (active) | < 0.0142 µM (active) | < 0.0149 µM (active) | 0.0137 µM (active) | < 0.01 µM (active) | < 0.0189 µM (active) | < 0.0255 µM (active) | < 0.0126 µM (active) | < 0.01 µM (active) | 0.0227 µM (active) | 0.0129 µM (active) | 0.0728 µM (active) | 0.0155 µM (active) | < 0.01 µM (active) | 0.0285 µM (active)
O=C1Nc2ccccc2/C1=C1/Nc2ccccc2/C1=N\OCCOC1OCC(O)C(O)C1O (centres undefined) | > 100 µM (inactive) | 25.5 µM (inactive) | > 100 µM (inactive) | > 100 µM (inactive) | > 100 µM (inactive) | > 100 µM (inactive) | > 100 µM (inactive) | 69.3 µM (inactive) | > 100 µM (inactive) | > 100 µM (inactive) | > 100 µM (inactive) | > 100 µM (inactive) | > 100 µM (inactive) | > 100 µM (inactive) | > 100 µM (inactive) | 17.9 µM (inactive) | 1.68 µM (inactive) | > 100 µM (inactive) | 41.1 µM (inactive) | > 100 µM (inactive)
COc1ccccc1NC(=O)C(=O)C(C#N)CC(C)(C)C=O (centres undefined) | > 100 µM (inactive) | > 100 µM (inactive) | > 100 µM (inactive) | > 100 µM (inactive) | > 100 µM (inactive) | > 100 µM (inactive) | > 100 µM (inactive) | > 100 µM (inactive) | > 100 µM (inactive) | > 100 µM (inactive) | > 100 µM (inactive) | > 100 µM (inactive) | > 100 µM (inactive) | > 100 µM (inactive) | > 100 µM (inactive) | > 100 µM (inactive) | > 100 µM (inactive) | > 100 µM (inactive) | > 100 µM (inactive) | > 100 µM (inactive)
CN(C)c1ccc(/C=C(\NC(=O)c2ccccc2)c2nc3ccccc3c(=O)o2)cc1 | > 100 µM (inactive) | > 100 µM (inactive) | > 100 µM (inactive) | > 100 µM (inactive) | > 100 µM (inactive) | > 100 µM (inactive) | > 100 µM (inactive) | > 100 µM (inactive) | > 100 µM (inactive) | > 100 µM (inactive) | > 100 µM (inactive) | 43.4 µM (inactive) | > 100 µM (inactive) | > 100 µM (inactive) | > 100 µM (inactive) | 91.4 µM (inactive) | > 100 µM (inactive) | > 100 µM (inactive) | > 100 µM (inactive) | > 100 µM (inactive)
Fc1ccc(OCc2nc3cc(C(F)(F)F)ccc3nc2-c2ccccc2)cc1 | > 86.9 µM (inactive) | 99.5 µM (inactive) | > 45.3 µM (inactive) | > 81.7 µM (inactive) | 3.06 µM (inactive) | > 100 µM (inactive) | > 58.9 µM (inactive) | > 100 µM (inactive) | > 100 µM (inactive) | > 100 µM (inactive) | 92 µM (inactive) | > 100 µM (inactive) | > 100 µM (inactive) | > 100 µM (inactive) | > 100 µM (inactive) | 29.7 µM (inactive) |  | > 100 µM (inactive) | 62.5 µM (inactive) | > 23.8 µM (inactive)
O=C1CC2(CCC(O)(c3ccc(Cl)cc3)C(C(=O)c3ccc(Cl)cc3)C2)C(=O)c2ccccc2N1 (centres undefined) | > 23.6 µM (inactive) | 35.5 µM (inactive) | 0.794 µM (active) | 1.48 µM (inactive) | 3.28 µM (inactive) | 10.2 µM (inactive) | > 28.1 µM (inactive) | 12.7 µM (inactive) | 14.6 µM (inactive) | 3.33 µM (inactive) | 0.877 µM (active) | 14.7 µM (inactive) | 3.1 µM (inactive) | 6.47 µM (inactive) | 4.53 µM (inactive) | 11.4 µM (inactive) | 12.4 µM (inactive) | 0.146 µM (active) | 12.4 µM (inactive) | 12.2 µM (inactive)
N=C(N)N/N=C/c1cc(Cl)cc(Cl)c1O | 38.9 µM (inactive) | 15.8 µM (inactive) | 65 µM (inactive) | 55.7 µM (inactive) | 48 µM (inactive) | 62.7 µM (inactive) | 42.3 µM (inactive) | 46.6 µM (inactive) | 56.5 µM (inactive) | 69.5 µM (inactive) | 46.9 µM (inactive) | > 100 µM (inactive) | 45.9 µM (inactive) | 58.1 µM (inactive) | 86.9 µM (inactive) | 37.4 µM (inactive) | > 100 µM (inactive) | 30.2 µM (inactive) | 32.2 µM (inactive) | 45.3 µM (inactive)
CN(C)CCCN1C(=S)N(CCCN(C)C)c2c3cc(O)ccc3nc3c([N+](=O)[O-])ccc1c23 | 4.08 µM (inactive) | 2.44 µM (inactive) | 2.38 µM (inactive) | 5.61 µM (inactive) | 2.14 µM (inactive) | 3.71 µM (inactive) | 6.7 µM (inactive) | 1.94 µM (inactive) | 3.41 µM (inactive) | 0.34 µM (active) | 2.61 µM (inactive) | 1.87 µM (inactive) | 1.53 µM (inactive) | 3.37 µM (inactive) | 2.58 µM (inactive) | 3.18 µM (inactive) | 4.11 µM (inactive) | 3.37 µM (inactive) | 1.44 µM (inactive) | 5.45 µM (inactive)
COC1C(O)=C2C(=O)OC(C)(O)/C=C/C=C\C=C/C=C/C(c3ccccc3)NC(=O)/C=C/C=C/C=C/C=C/C2(C)C1O (centres undefined) | 0.0118 µM (active) | 0.0122 µM (active) | 0.00146 µM (active) | 0.0419 µM (active) | 0.248 µM (active) | 0.0101 µM (active) | 0.0101 µM (active) | 0.00646 µM (active) | 0.0158 µM (active) | < 0.001 µM (active) | 0.0678 µM (active) | 0.0034 µM (active) | 0.0171 µM (active) | 0.0111 µM (active) | 0.0461 µM (active) | 0.0356 µM (active) | 0.0253 µM (active) | 0.028 µM (active) | 0.0152 µM (active) | 0.0363 µM (active)
COc1cccc2c(N)c3cccc(C(=O)NCCN(C)C)c3nc12 | 0.174 µM (active) | 0.179 µM (active) | 0.163 µM (active) | 0.0746 µM (active) | 0.0415 µM (active) | 0.214 µM (active) | 0.0927 µM (active) | 0.11 µM (active) | 0.132 µM (active) |  | 0.157 µM (active) | 0.134 µM (active) | 0.0659 µM (active) | 0.297 µM (active) | 1.27 µM (inactive) | 0.367 µM (active) | 0.233 µM (active) | 0.0944 µM (active) | 0.274 µM (active) | 0.701 µM (active)
CCOC(=O)c1nc2ccc(C(F)(F)F)cc2nc1Nc1ccc(OC)c(OC)c1 | > 100 µM (inactive) | > 100 µM (inactive) | 65.2 µM (inactive) | > 100 µM (inactive) | > 100 µM (inactive) | 48.9 µM (inactive) | > 100 µM (inactive) | > 100 µM (inactive) | > 100 µM (inactive) | > 100 µM (inactive) |  | > 100 µM (inactive) | 78.2 µM (inactive) | > 100 µM (inactive) | > 100 µM (inactive) | > 100 µM (inactive) | 60 µM (inactive) | 21.6 µM (inactive) | > 100 µM (inactive) | > 100 µM (inactive)
O=C(O)C(Cc1c[nH]c2ccccc12)C(=O)NO (centres undefined) | 14.2 µM (inactive) | > 100 µM (inactive) | > 100 µM (inactive) | > 100 µM (inactive) | > 100 µM (inactive) | > 100 µM (inactive) | > 100 µM (inactive) | > 100 µM (inactive) | > 100 µM (inactive) | > 100 µM (inactive) | > 100 µM (inactive) | > 100 µM (inactive) | > 100 µM (inactive) | > 100 µM (inactive) | > 100 µM (inactive) | > 100 µM (inactive) | > 100 µM (inactive) | > 100 µM (inactive) | > 100 µM (inactive) | > 100 µM (inactive)
CC1(C)C2CCC3=C(CCC4(C)C5C[C@](C)(C(=O)O)CC[C@]5(C)CC[C@]34C)[C@@]2(C)CC[C@@H]1O (some centres undefined) | 20.4 µM (inactive) | 64.9 µM (inactive) | 18.6 µM (inactive) | 31 µM (inactive) | 16.6 µM (inactive) | 17.9 µM (inactive) | 17.1 µM (inactive) | 29 µM (inactive) | 19.3 µM (inactive) | 15.2 µM (inactive) | 16.3 µM (inactive) |  | 31.2 µM (inactive) |  | 17.5 µM (inactive) | 34.3 µM (inactive) | 20.2 µM (inactive) | 19 µM (inactive) | 18 µM (inactive) | 
